Experimental data as given in patent publication US9522197B2, “Nanoparticles comprising a cyclodextrin and a biologically active molecule and uses thereof” (INNOUP FARMA, S.L., priority 2007, dated 2016).

Test: Quantification of cyclodextrin associated with the nanoparticles (HPLC-ELSD)
Format: physicochemical
Conditions: PVM/MA 100 mg, cyclodextrin 25 mg, incubation 30 min; n=12
Method: The analysis was conducted in a 1100 series LC model chromatograph (Agilent, Waldbornn, Germany) and the data was analyzed in a Hewlett-Packard computer by means of the Chem-Station G2171 program (Agueros et al., J. Pharm. and Biomed. Anal., 39 (2005) 495-502).
For the sample analysis, the supernatants obtained after the purification process of the nanoparticles were diluted up to 10 ml with purified water. After adding the internal standard (PEG 6000), 1 ml aliquots of supernatant were taken as a sample. The samples were analyzed using a Zorbax Eclipse XDB-Phenyl column (Agilent 150 mm×2.1 mm) and a mixture of water/acetonitrile in a gradient (see Table 1) as a mobile phase at a flow of 0.25 ml/min.
The conditions of the detector (ELSD) were optimized until achieving the maximum sensitivity according to the gradient used in the mobile phase (Nebulizer Temperature: 115° C.; Nitrogen Flow: 3.2 ml/min). The chromatographic separation of the different cyclodextrins, of PVM/MA and of the internal standard (PEG 6000) was carried out in less than 15 minutes. The retention times were:
In the case of the quantification of aminated cyclodextrin [e.g. 6-monodeoxy-6-monoamino-β-cyclodextrin (NH-β-CD)] associated to the nanoparticles, a variant of the above described method was used to prevent the overlapping of the peaks of the cyclodextrin and the polymer. Therefore, the samples were analyzed using an NH2-Zorbax column (Agilent 4.6×150 mm, 5 μm), heated to 40° C. and a mixture of methanol/water (80/20 v/v) as a mobile phase at a flow of 1 ml/min. The conditions of the detector (ELSD) were the following: Nebulizer Temperature: 71° C. and Nitrogen Flow: 1.9 ml/min. The chromatographic separation of 6-monodeoxy-6-monoamino-β-cyclodextrin was carried out in less than 7 minutes. The retention time was 3.8±0.07 minutes.
Finally, the amount of cyclodextrin (CD) associated to the nanoparticles was calculated as the difference between the amount of CD initially added and the amount of CD quantified in the supernatants.

| Compound | Associated CD |
| --- | --- |
| 2-hydroxypropyl-β-cyclodextrin [OH-β-CD] | ~70 µg/mg |
| NC[C@H]1O[C@@H]2O[C@H]3[C@H](O)[C@@H](O)[C@@H](O[C@H]4[C@H](O)[C@@H](O)[C@@H](O[C@H]5[C@H](O)[C@@H](O)[C@@H](O[C@H]6[C@H](O)[C@@H](O)[C@@H](O[C@H]7[C@H](O)[C@@H](O)[C@@H](O[C@H]8[C@H](O)[C@@H](O)[C@@H](O[C@H]1[C@H](O)[C@H]2O)O[C@@H]8CO)O[C@@H]7CO)O[C@@H]6CO)O[C@@H]5CO)O[C@@H]4CO)O[C@@H]3CO [NH-β-CD, 6-monodeoxy-6-monoamino-β-cyclodextrin] | ~70 µg/mg |
| OC[C@H]1O[C@@H]2O[C@H]3[C@H](O)[C@@H](O)[C@@H](O[C@H]4[C@H](O)[C@@H](O)[C@@H](O[C@H]5[C@H](O)[C@@H](O)[C@@H](O[C@H]6[C@H](O)[C@@H](O)[C@@H](O[C@H]7[C@H](O)[C@@H](O)[C@@H](O[C@H]8[C@H](O)[C@@H](O)[C@@H](O[C@H]1[C@H](O)[C@H]2O)O[C@@H]8CO)O[C@@H]7CO)O[C@@H]6CO)O[C@@H]5CO)O[C@@H]4CO)O[C@@H]3CO [β-CD, β-cyclodextrin] | about 90 μg/mg |
